# pIC50: −log10 of the molar value. Structures can show the parent of a compound that is named as a salt.
# What was measured:
# δ opioid receptors = δ opioid receptors (Rattus norvegicus, UniProt P33533); assay: Opiate Binding Assay, δ (3[H]-DSLET displacement)
# μ opioid receptors = μ opioid receptors (Rattus norvegicus, UniProt P33535); assay: Opiate Binding Assay, μ (3[H]-DAMPGO displacement)
# [1] = system: Charles River Sprague-Dawley rats; assay: Tail Flick Assay (rat); type: in vivo; details: s.c., at 30 mpk
# Excerpt: (§1) The "Tail Flick Assay" and the "Hot Plate Assay" (also known as the "Hind Paw Lick Assay") use thermal pain of transient duration, and are tests in which the pain threshold of the mice or rats being analyzed has not been altered. They are useful for evaluating the ability of a compound or drug to increase the animal's pain threshold (i.e. prolong response latencies), rather than to restore normal thresholds.
# The heat-induced response to the Tail Flick Assay is a reflex reaction mediated at the level of the spinal cord. The heat-induced response to the Hot Plate Assay, however, is a more complex behavior requiring integration at higher centers in the brain. […]
# Tail flick response latencies (defined as the time that elapsed between the onset of a high intensity beam of light and the reflex removal of the mouse or rat's tail) and hot plate response latencies (defined as the time that elapsed between the placement of a mouse or rat on a 55 degrees Celsius surface and a lick of the hind paw) were separately, but consecutively, measured before (baseline) and again at fixed intervals after subcutaneous or intracerebroventricular administration of one of the pentapeptide compounds of the invention, the Mosberg Pentapeptide, or after the administration of saline (controls). […]
# [2] = system: Charles River albino mice; assay: Tail Flick Assay (mouse); type: in vivo; details: for Tail Flick Assay activity, Subcutaneous: s.c.
# Excerpt: as §1
# (§2) The heat-induced response to the Tail Flick Assay is a reflex reaction mediated at the level of the spinal cord. The heat-induced response to the Hot Plate Assay, however, is a more complex behavior requiring integration at higher centers in the brain.
# The Tail Flick Assay and the Hot Plate Assay were performed generally in the manner described by G. Woolfe et al., "The Evaluation of the Analgesic Action of Pethidine Hydrochloride (Demerol)," J. Pharmacol. Exp. Ther., 80, 300, (1944), F. D'Amour et al., "A Method for Determining Loss of Pain Sensation," J. PharmacoI. Exp. Ther., 72, 74, 300-307 (1941), and E. Drower et al., "The Antinociceptive Effects of Prostaglandin Antagonists in the Rat," European Journal of Pharmacology, 133, 249-256 (1987).
# Male Charles River albino mice and male Charles River Sprague-Dawley rats weighing 20 to 30 g, and 200 to 250 g, respectively, were employed in these assays.
# Tail flick response latencies (defined as the time that elapsed between the onset of a high intensity beam of light and the reflex removal of the mouse or rat's tail) and hot plate response latencies (defined as the time that elapsed between the placement of a mouse or rat on a 55 degrees Celsius surface and a lick of the hind paw) were separately, but consecutively, measured before (baseline) and again at fixed intervals after subcutaneous or intracerebroventricular administration of one of the pentapeptide compounds of the invention, the Mosberg Pentapeptide, or after the administration of saline (controls). The cut-off latencies established to prevent tissue damage in the animals are 12 seconds or 14 seconds in the mouse and rat, respectively, in the Tail Flick Assay, and 40 seconds for both species in the Hot Plate Assay. The significance of any increase in tail flick response latency or hot plate response latency is determined using analyses of variance.
# One way analyses of variance were used to determine the significance of the effect of the pentapeptides on response latencies. […]
# (§3) "Activity" or "Inactivity" was determined at a particular concentration of the peptide by a significant increase in tail flick or hot plate latencies above normal latencies.
# (§4) The data resulting from the Tail Flick Assay and the Hot Plate Assay are presented in Tables II and III below, respectively. The numbers in parentheses are calculated ED50 values.
# CD Charles River mice = assay: Writhing Assay (PBQ-induced writhing); type: in vivo; details: mouse; for Writhing Assay, number of mice out of ten in which peptide was active, Intragastric: i.g., 15 min before PBQ; for Writhing Assay, number of mice out of ten in which peptide was active, Intragastric / Writhing Assay, number of mice out of ten in which peptide was active, Subcutaneous: 10 mpk screening dose; for Writhing Assay ED50 value, Subcutaneous / Writhing Assay, number of mice out of ten in which peptide was active, Subcutaneous: s.c.; for Writhing Assay ED50 value, Subcutaneous: 25 min before PBQ i.p.
# Excerpt: The "Writhing Assay" is one of the most widely-used experimental procedures for measuring the analgesic activity of different narcotic and nonnarcotic analgesic agents, and involves the continuous, chemically-induced pain of visceral origin to an animal, such as a mouse or rat. [Gyires et al., Arch. int. Pharmacodyn, 267, 131-140 (1984); C. Vander Wende et al., Fed. Proc., 15, 494 (1956); Koster et al., Fed. Proc., 18, 412 (1959); and Witken et al., J. Pharmacol. Exp. Ther., 133, 400-408 (1961).] Chemicals Which may be used to induce this pain include phenylbenzoquinone (PBQ) and acetic acid. As a result of the chemical irritation to the animal, a characteristic stretching and writhing of the animal (dorsiflexion of the animal's back, extension of its hindlimbs and the strong contraction of its abdominal musculature) will generally occur. […] Drugs which reduce the number of writhes of the animal appear to restore the normal nociceptive threshold of the animal.
# This assay was conducted generally in the manner described by R. I. Taber, "Predictive Value of Analgesic Assays in Mice and Rats," Advances in Biochemical Psychopharmacology, 8, 191 (1974).
# Two hundred CD Charles River mice, weighing 20 to 30 grams were used in this assay.
# Twenty-five minutes after subcutaneous administration, and fifteen minutes after intragastric administration, to the mice of 10 mg per kilogram (mpk) of body weight of either a Test Pentapeptide or the Mosberg Pentapeptide, 0.1 ml per 10 g of body weight of a 0.025% w/v solution of PBQ was injected intraperitoneally into each mouse. Some mice were given saline in place of a Test Pentapeptide, or the Mosberg Pentapeptide, and were used as a control group.
# Five minutes later, each mouse was individually placed into a glass beaker for observation, and the number of writhes occurring during the following ten-minute period was counted.
# A pentapeptide compound was considered to be "active" (to have produced analgesia in a mouse) if, after the administration of 10 mg per kilogram (mpk) of body weight of the compound to the mouse, the number of writhes elicited by a mouse injected with PBQ was equal to, or less than, one-half the median number of writhes recorded for the saline-treated control group of mice that day, as described by R. I. Taber, supra.
# The standard initial screening dose of a test compound employed in this assay was 10 mpk […] for both routes of administration. […] A maximum likelihood function was used to determine the ED50 value. (The slopes of the dose-response curves for all test compounds analyzed were compared as described by Tallarida and Murray, Manual of Pharmacologic Calculations, Page 11 (Springer Verlag, New York, 1981)).
# [3] = system: Charles River albino mice; assay: Hot Plate Assay (mouse); type: in vivo
# Excerpt: as §1, §2
# The Tail Flick Assay and the Hot Plate Assay were performed generally in the manner described by G. Woolfe et al., "The Evaluation of the Analgesic Action of Pethidine Hydrochloride (Demerol)," J. Pharmacol. Exp. Ther., 80, 300, (1944), F. D'Amour et al., "A Method for Determining Loss of Pain Sensation," J. PharmacoI. […]
# Tail flick response latencies (defined as the time that elapsed between the onset of a high intensity beam of light and the reflex removal of the mouse or rat's tail) and hot plate response latencies (defined as the time that elapsed between the placement of a mouse or rat on a 55 degrees Celsius surface and a lick of the hind paw) were separately, but consecutively, measured before (baseline) and again at fixed intervals after subcutaneous or intracerebroventricular administration of one of the pentapeptide compounds of the invention, the Mosberg Pentapeptide, or after the administration of saline (controls). […] The significance of any increase in tail flick response latency or hot plate response latency is determined using analyses of variance. […]
# as §3, §4
# [4] = i.c.v., dose giving half the maximum possible increase in latency
# Sequence of δ opioid receptors (P33533 whole entry): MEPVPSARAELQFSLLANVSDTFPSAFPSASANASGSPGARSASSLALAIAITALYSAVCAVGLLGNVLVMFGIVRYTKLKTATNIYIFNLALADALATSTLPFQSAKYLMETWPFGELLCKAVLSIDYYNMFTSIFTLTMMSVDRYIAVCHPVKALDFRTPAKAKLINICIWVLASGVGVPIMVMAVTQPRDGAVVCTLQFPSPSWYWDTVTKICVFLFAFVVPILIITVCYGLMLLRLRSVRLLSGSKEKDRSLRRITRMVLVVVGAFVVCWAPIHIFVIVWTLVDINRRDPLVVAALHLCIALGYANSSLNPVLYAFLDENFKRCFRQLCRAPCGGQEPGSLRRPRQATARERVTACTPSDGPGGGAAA
# Sequence of μ opioid receptors (P33535 whole entry): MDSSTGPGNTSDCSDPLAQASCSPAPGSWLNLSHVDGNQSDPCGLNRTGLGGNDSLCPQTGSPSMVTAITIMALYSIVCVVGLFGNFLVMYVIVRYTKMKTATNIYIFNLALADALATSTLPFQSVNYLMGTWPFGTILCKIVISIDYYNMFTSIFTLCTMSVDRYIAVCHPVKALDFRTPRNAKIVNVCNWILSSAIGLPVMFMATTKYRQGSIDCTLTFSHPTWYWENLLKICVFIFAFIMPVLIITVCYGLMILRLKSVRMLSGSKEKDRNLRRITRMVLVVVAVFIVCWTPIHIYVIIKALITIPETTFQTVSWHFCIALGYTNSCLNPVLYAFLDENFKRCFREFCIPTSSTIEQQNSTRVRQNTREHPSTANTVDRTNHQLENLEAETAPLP
structure (smiles),measurement,setting,value
"Cc1cc(O)c(C)c(C)c1CC(N)C(=O)N[C@H]1C(=O)NCC(=O)N[C@@H](Cc2ccccc2)C(=O)N[C@@H](C(=O)O)C(C)(C)SSC1(C)C (single isomer, unassigned) [Example 20 (Diastereomer A), 2,3,6-trimethyl-L-tyrosyl-3-mercapto-D-valylglycyl-L-phenylalanyl-3-mercapto-D-valine, cyclic (2→5) disulfide]",pIC50,δ opioid receptors,7.62
same,pIC50,μ opioid receptors,4.62
"Cc1ccc(CC(N)C(=O)N[C@H]2C(=O)NCC(=O)N[C@@H](Cc3ccccc3)C(=O)N[C@@H](C(=O)O)C(C)(C)SSC2(C)C)c(C)c1O (single isomer, unassigned) [Example 21 (Diastereomer B), 3-hydroxy-2,4-dimethyl-L-phenylalanyl-3-mercapto-D-valyglycyl-L-phenylalanyl-3-mercapto-D-valine, cyclic (2→5)-disulfide]",pIC50,δ opioid receptors,6.82
"Cc1cc(O)cc(C)c1C[C@H](N)C(=O)N[C@H]1C(=O)NCC(=O)N[C@@H](Cc2ccccc2)C(=O)N[C@@H](C(=O)O)C(C)(C)SSC1(C)C [Example 4, 2,6-dimethyl-L-tyrosyl-3-mercapto-D-valylglycyl-L-phenylalanyl-3-mercapto-D-valine, cyclic (2→5)-disulfide]","Tail Flick Assay activity, Subcutaneous",[1],Active
same,"Tail Flick Assay calculated ED50 value, Intracerebroventricular",[2]; [4],0.28 µg
same,"Tail Flick Assay activity, Subcutaneous",[2]; at 33 mpk,Active
same,"Writhing Assay, number of mice out of ten in which peptide was active, Intragastric",CD Charles River mice,3/10
same,"Writhing Assay ED50 value, Subcutaneous",CD Charles River mice,2.6 mpk
same,"Hot Plate Assay calculated ED50 value, Intracerebroventricular",[3]; [4],0.20 µg
"COC(=O)[C@@H]1NC(=O)[C@H](Cc2ccccc2)NC(=O)CNC(=O)[C@H](NC(=O)[C@@H](N)Cc2c(C)cc(O)cc2C)C(C)(C)SSC1(C)C [Example 16, -dimethyl-L-tyrosyl-3-mercapto-D-valylglycyl-L-phenylalanyl-3-mercapto-D-valine, cyclic (2→5)-disulfide, methyl ester]","Tail Flick Assay activity, Intracerebroventricular","[2]; i.c.v., at 10 μg",Active
same,"Tail Flick Assay activity, Subcutaneous",[2]; at 30 mpk,Active
same,"Writhing Assay, number of mice out of ten in which peptide was active, Intragastric",CD Charles River mice,3/10
same,"Writhing Assay ED50 value, Subcutaneous",CD Charles River mice,2.1 mpk
same,"Hot Plate Assay activity, Intracerebroventricular","[3]; i.c.v., at 10 μg",Active
same,"Hot Plate Assay activity, Subcutaneous","[3]; s.c., at 30 mpk",Active
"Cc1cc(O)cc(C)c1C[C@H](N)C(=O)N[C@H]1C(=O)NCC(=O)N[C@@H](Cc2ccc(F)cc2)C(=O)N[C@@H](C(N)=O)C(C)(C)SSC1(C)C [Example 23, 2,6-dimethyl-L-tyrosyl-3-mercapto-D-valylglycyl-4-fluoro-L-phenylalanyl-3-mercapto-D-valinamide, cyclic (2→5)-disulfide]",rank order of potency in the Writhing Assay,CD Charles River mice; from Table I,most potent compound of the invention tested
same,"Writhing Assay, number of mice out of ten in which peptide was active, Intragastric",CD Charles River mice,4/10
same,"Writhing Assay ED50 value, Subcutaneous",CD Charles River mice,1.9 mpk
"Cc1cc(O)cc(C)c1C[C@H](N)C(=O)N[C@H]1C(=O)NCC(=O)N[C@@H](CC2CCCCC2)C(=O)N[C@@H](C(N)=O)C(C)(C)SSC1(C)C [Example 24, 2,6-dimethyl-L-tyrosyl-3-mercapto-D-valylglycyl-3-cyclohexyl-L-alanyl-3-mercapto-D-valinamide, cyclic (2→5)-disulfide]",Mean IC50 μ/δ Ratio,"δ opioid receptors; ratio of mean IC50 values for μ and δ opioid receptors, above 1.0 = δ specific",1.6
same,"Writhing Assay, number of mice out of ten in which peptide was active, Intragastric",CD Charles River mice,2/10
same,"Writhing Assay, number of mice out of ten in which peptide was active, Subcutaneous",CD Charles River mice,2/10
"Cc1cc(O)cc(C)c1C[C@H](N)C(=O)N[C@H]1C(=O)NCC(=O)N[C@@H](Cc2ccc(Cl)cc2)C(=O)N[C@@H](C(=O)OCc2ccccc2)C(C)(C)SSC1(C)C [Example 41, 2,6-dimethyl-L-tyrosyl-3-mercapto-D-valylglycyl-4-chloro-L-phenylalanyl-3-mercapto-D-valine, cyclic (2→5)-disulfide, phenylmethyl ester, monohydrochloride]","Writhing Assay, number of mice out of ten in which peptide was active, Intragastric",CD Charles River mice,4/10
same,"Writhing Assay, number of mice out of ten in which peptide was active, Subcutaneous",CD Charles River mice,3/10
